From patent publication US20160000762A1, “IMPROVING COGNITIVE FUNCTION” (THE REGENTS OF THE UNIVERSITY OF CALIFORNIA, priority 2013, published 2016)

Key:
[1] = target: T1, human APP (Homo sapiens, UniProt P05067); assay: Cell surface biotinylation, COS7 cells expressing APP; type: cell-based; details: 5 μM, 24 h
T1 construct: expressed in transfected cells; host or cells: COS7 cells
Experimental: Cell lines. COS 7 cells (Lombardi Co-Resources Cancer Center, Georgetown University) were maintained in Opti-MEMO (Invitrogen) with 10% fetal bovine serum (FBS, Life Technologies, Inc.) in a 5% CO2 incubator. The cells were transiently transfected with 0.5-1 μg of plasmid in FuGENE® 6 (Roche) according to the manufacturer's protocol and cultured 24 hr in DMEM containing 10% FBS. For co-transfections, cells were similarly transfected with 0.5-1 μg of each plasmid in FUGENE® 6 (Roche) and cultured 24 hr in DMEM with 10% FBS.
Cell surface biotinylation. COS7 cells were transiently transfected with APP for 24 hr in OPTI-MEM® containing 10% fetal bovine serum, and then treated with BTA-EG4 or control for 24 hr. After 24 hr, surface proteins were biotin labeled, immobilized with NeutrAvidin™ Gel and incubated 1 h with SDS-PAGE sample buffer, including 50 mM DTT, as described previously (Minami et al., 2010). Eluates were analyzed for APP by immunoblotting.
It is well known that the majority of a-secretase activity occurs on the cell surface, while β- and γ-secretase activity occurs primarily in the early and late endosomes (Huse et al., 2000; Reiss et al., 2006). Thus, if APP is present at the cell's surface, it is preferentially cleaved by α-secretase, resulting in decreased Aβ production. Therefore, we examined whether BTA-EG4 regulates cell surface expression of APP. […]

[2] = system: SC and TA inputs to CA1; assay: Field potential recordings and LTP, acute hippocampal slices of injected mice; type: in vivo, wild-type mice
Experimental: Electrophysiology. Transverse [for Schaffer collateral (SC) input studies] or horizontal [for temporammonic (TA) input studies] hippocampal slices (400-μm thick) were prepared from adult mice. Slices were made using ice-cold dissection buffer (in mM: 212.7 sucrose, 2.6KCl, 1.23NaH2PO4, 10 dextrose, 3MgCl2 and 1CaCl2; 5% CO2/95% O2), and recordings were done in a submersion-type chamber perfused with artificial cerebrospinal fluid (ACSF, in mM: 124NaCl, 5KCl, 1.25NaH2PO4, 26NaHCO3, 10 dextrose, 1.5MgCl2, and 2.5CaCl2; 5% CO2/95% O2, 29.5-30.5° C., 2 ml/min). For field potential recordings, synaptic responses were evoked using 0.2 ms duration pulses delivered through a bipolar glass stimulating electrode at 0.0333 Hz. A train of TBS consisted of a burst of 4 pulses at 100 Hz repeated 10 times at 5 Hz. For 4× TBS, 4 trains of TBS were given at 10 sec inter-train-intervals. For whole cell recordings, slices were transferred to a submersion-type recording chamber mounted on a fixed stage of an upright microscope (E600 FN; Nikon, Tokyo, Japan) with IR oblique illumination. […]. These neurons were patched using a whole cell patch pipette (tip resistance 3-5 MΩ), which was filled with internal solution (in mM: 120 Cs-methanesulfonate, 5MgCl2, 8NaCl, 1 EGTA, 10 HEPES, 2 Mg.ATP, 0.5Na3GTP and 1 QX-314; pH 7.3, 280-290 mOsm). Recording was initiated 2-3 min after break-in, and each cell was recorded for 10-15 min to collect enough mEPSCs for analysis. The Axon patch-clamp amplifier 700B (Molecular Devices, Union City, Calif.) was used for voltage-clamp recordings. Cells were held at −70 mV, and the recorded mEPSC data were digitized at 10 kHz with a data acquisition board (National Instruments, Austin, Tex.) and acquired through custom-made programs using the Igor Pro software (WaveMetrics, Lake Oswego, Oreg.). The MiniAnalysis program (Synaptosoft, Decatur, Ga.) was used to analyze the acquired mEPSCs. The threshold for detecting mEPSCs was set at three times the root mean square (RMS) noise. […] Recordings were excluded from analysis if the RMS noise was <2, the series resistance was […], and input resistance was >100 MΩ. To minimize the impact of dendritic filtering, we adopted the standard approach of excluding mEPSCs with rise time >3 ms, as well as cells showing a negative correlation between mEPSC amplitude and rise time (Rall, 1969). Only about 4% of the total recorded cells (at most 1 cell per experimental group) were excluded due to negative correlation between mEPSC rise and amplitude. One hundred consecutive mEPSCs that met the rise time criteria were analyzed from each cell. AMPAR- and NMDAR-mediated currents were measured at −70 and +40 mV, respectively. AMPAR mediated EPSC amplitudes were measured at the peak of the current at −70 mV. NMDAR mediated EPSC amplitudes were measured 100 ms after the stimulation artifact. Data are means±SE. Student's t-test was used for two-group comparisons. For all statistical tests, P<0.05 was considered statistically significant.
Therefore, we examined whether improved cognitive performance following BTA-EG4 treatment is associated with altered synaptic function and plasticity. We conducted electrophysiology experiments in an acute hippocampal slice preparation from wild-type mice injected with BTA-EG4 (30 mg/kg, i.p.) or control solution (10% DMSO, i.p) for 2 weeks. […] Long-term potentiation (LTP) was either normal or reduced, depending on the induction protocol (FIGS. 3C-3D). […] There was also not a change in presynaptic function (FIG. 3I).

[3] = SC inputs to CA1, 30 mg/kg i.p., 2 weeks

T1 sequence (P05067 18-770): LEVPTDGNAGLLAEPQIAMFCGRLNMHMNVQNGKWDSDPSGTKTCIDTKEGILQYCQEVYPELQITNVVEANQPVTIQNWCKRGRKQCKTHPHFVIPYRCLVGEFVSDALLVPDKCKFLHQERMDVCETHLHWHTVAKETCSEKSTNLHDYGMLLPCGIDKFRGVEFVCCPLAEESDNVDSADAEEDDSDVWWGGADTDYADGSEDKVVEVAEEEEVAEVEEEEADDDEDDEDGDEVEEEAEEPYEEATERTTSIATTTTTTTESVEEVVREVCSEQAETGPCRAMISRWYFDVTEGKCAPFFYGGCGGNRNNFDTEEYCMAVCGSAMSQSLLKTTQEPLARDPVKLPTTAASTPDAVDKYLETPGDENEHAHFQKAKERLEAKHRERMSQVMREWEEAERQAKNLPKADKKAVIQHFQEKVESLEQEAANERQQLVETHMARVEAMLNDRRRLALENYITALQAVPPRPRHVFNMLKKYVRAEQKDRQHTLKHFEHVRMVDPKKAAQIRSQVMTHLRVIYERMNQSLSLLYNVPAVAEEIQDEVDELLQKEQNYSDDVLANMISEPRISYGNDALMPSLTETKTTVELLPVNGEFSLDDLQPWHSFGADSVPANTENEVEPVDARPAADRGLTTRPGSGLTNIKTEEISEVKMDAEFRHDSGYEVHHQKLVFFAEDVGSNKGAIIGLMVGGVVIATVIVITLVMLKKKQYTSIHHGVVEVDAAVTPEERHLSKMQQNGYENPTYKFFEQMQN

What does the source list for BTA-EG4?
cell surface APP [1]: increased; summation of synaptic responses during the LTP induction protocol ([2]; SC inputs to CA1): reduced; magnitude of LTP ([2]; SC inputs to CA1, induced by 1× TBS): No difference; magnitude of LTP ([2]; SC inputs to CA1, induced by 4× TBS): reduction; basal synaptic transmission [2, 3]: did not alter; presynaptic function [2, 3]: did not alter; presynaptic function ([2]; TA inputs to CA1): not a change; response summation during the induction protocol ([2]; TA inputs to CA1): absence of a change; synaptic transmission normalized to presynaptic fiber volley amplitude ([2]; TA inputs to CA1): no difference; TA-LTP ([2]; TA inputs to CA1, at 1 h post-LTP, CTRL 120±2.1%): 109±1.2%; ability to recruit presynaptic axons per stimulation intensity ([2]; TA inputs to CA1, 30 mg/kg i.p.): reduced
